Assay results: patent publication US20220381784A1, “SYSTEMS COMPRISING SUBSTRATES AND METHODS OF USING THE SAME FOR DETECTION OF PANCREATIC CANCERS” (THE REGENTS OF THE UNIVERSITY OF CALIFORNIA, priority 2019, published 2022)
Square brackets hold non-standard residues; d marks the D form. Peptide text beside a SMILES is read from it. * marks the point of attachment. Sta = CC(C)C[C@H](N)[C@@H](O)CC(=O)O; Isovaleryl = CC(C)CC(=O)*; CH2Cl = ClC*

Tests used:
[1] = test system: tri-amino peptidase activity in mucinous cyst fluid; assay: MSP-MS assay of mucinous cyst fluid with protease inhibitors; format: biochemical, human; conditions: 2 μmol/L pepstatin; for effect on tri-amino peptidase activity (cleavage after third amino acid): pH 3.5, 10 μmol/L AAF-CMK
Procedure: The MSP-MS assay was performed as described previously (Ivry et al., 2017; O'Donoghue et al., 2012). Cyst fluid protein concentration was first determined through the BCA assay (Thermo Fisher, 23225). Cyst fluid samples were then diluted to 100 μg/mL in pH 3.5 acetate buffer or pH 7.5 phosphate buffer. The 228 tetradecapeptide was split into two pools of 114 peptides each and diluted to 1 μmol/L in either acetate or phosphate buffer. Equal volumes of diluted cyst fluid and peptide pools were combined and incubated at room temperature. After 15 and 60 minutes, 30 μL aliquots were removed and protease activity was quenched with 8 mol/L guanidinium hydrochloride. Aliquots were then desalted using C18 tips (Rainin). The following inhibitors were included in specified MSP-MS assays: 1 mmol/L AEBSF (Sigma, A8456), 2 mmol/L E64 (Sigma, E3132), 2 μmol/L pepstatin (Sigma, P5318), 2 mmol/L 1,10-phenanthroline (Sigma, 131337), and 10 μmol/L AAF-CMK (Enzo, BML-PI123).
Mass spectrometry analysis was performed with an LTQ Orbitrap XL Mass Spectrometer (Thermo Fisher) coupled to an Ultra Performance Liquid Chromatography (UPLC) System (Waters). Peptides were separated over a C18 column (Thermo Fisher, ES800) with a 65-minute linear gradient from 2%-30% acetonitrile. MS spectra were acquired over an m/z range of 325-1,500 and MS/MS spectra were obtained for the six most intense precursor ions by collision-induced dissociation (CID). Peak lists were generated using MSConvert and searched in Protein Prospector v. 5.10.0 against a database containing the sequences from the 228 tetradecapeptide library. Searches used a mass tolerance of 20 ppm for precursors and 0.8 Da for fragments. The following variable modifications were allowed: N-terminal pyroglutamate conversion from glutamine or glutamate and oxidation of tryptophan, proline, and tyrosine. Search outputs were then processed using the MSP-xtractor software (http://www.craiklab.ucsfedu/extractor.html). […] Spectral counts were used for relative quantification of MSP-MS results.

[2] = biological target: most rapidly cleaved internally quenched fluorescent TPP1 substrate (P3 to P4' sequence from the MSP-MS library, lysine-fluorophore in P1)

Molecule	number of detected peptide cleavages at other positions enriched in mucinous cysts (B6, B8, B9, B10) ([1]; acidic pH)	effect on tri-amino peptidase activity (cleavage after third amino acid) [1]	kcat/Km (cleavage of internally quenched fluorescent substrate, fluorescence assay, pH 4.5) [2]
CC(C)CC(=O)N[C@H](C(=O)N[C@H](C(=O)N[C@@H](CC(C)C)[C@@H](O)CC(=O)N[C@@H](C)C(=O)N[C@@H](CC(C)C)[C@@H](O)CC(=O)O)C(C)C)C(C)C [pepstatin] (Isovaleryl-VV[Sta]A[Sta]-OH)	decrease	not inhibited	
C[C@H](N)C(=O)N[C@@H](C)C(=O)N[C@@H](Cc1ccccc1)C(=O)CCl [tripeptide chloromethylketone inhibitor, Ala-Ala-Phe-chloromethylketone] (H-Ala-Ala-Phe-CH2Cl)		almost completely ablated	
recombinant tripeptidyl peptidase 1 (TPP1) (protein) LHLGVTPSVIRKRYNLTSQDVGSGTSNNSQACAQFLEQYFHDSDLAQFMRLFGGNFAHQASVARVVGQQGRGRAGIEASLDVQYLMSAGANISTWVYSSPGRHEGQEPFLQWLMLLSNESALPHVHTVSYGDDEDSLSSAYIQRVNTELMKAAARGLTLLFASGDSGAGCWSVSGRHQFRPTFPASSPYVTTVGGTSFQEPFLITNEIVDYISGGGFSNVFPRPSYQEEAVTKFLSSSPHLPPSSYFNASGRAYPDVAALSDGYWVVSNRVPIPWVSGTSASTPVFGGILSLINEHRILSGRPPLGFLNPRLYQQHGAGLFDVTRGCHESCLDEEVEGQGFCSGPGWDPVTGWGTPNFPALLKTLLNP			kcat/Km of 2.5 µmol^-1s^-1
